Source: PubChem BioAssay AID652140 (Sanford-Burnham Center for Chemical Genomics, 2013)
Activity calls are given as the source filed them.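 Rule for the calls: active = compounds whose IC50 against the worm SKN-1 reporter ratio signal is 5 µM or lower; inactive = the rest.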

System: C. elegans VP596 gst-4::GFP/RFP ratio, acrylamide, 24 h
Assay: analog inhibition of acrylamide-induced gst-4::GFP reporter, SAR follow-up, SKN-1 inhibitor project, whole organism, GFP/RFP fluorescence ratio, strain VP596 (AID 652140)

| Structure (SMILES) | IC50 |
| --- | --- |
| CCOc1cc(CNC2CCCC2)ccc1OCc1ccc(F)cc1 | 10.3 µM (inactive) |
| c1ccc(-c2csc(-c3cccnc3)n2)cc1 | 19.6 µM (inactive) |
| Clc1ccc(-c2csc(-c3ccncc3)n2)cc1 | 1.1 µM |
| COc1ccc(-c2csc(-c3ccncc3)n2)cc1 | 18 µM (inactive) |
| CCOc1cc(CNC2CCCC2)cc(Cl)c1OCc1ccc(Cl)cc1 | 0.244 µM |
| CCOc1cc(CNC2CC2)cc(Cl)c1OCc1ccc(F)cc1 | 1.96 µM |
| CCOc1cc(CNC(C)C)cc(Cl)c1OCc1ccc(F)cc1 | 16.7 µM (inactive) |
| Cc1ccc(-c2csc(-c3ccncc3)n2)cc1 | 17.7 µM (inactive) |
| CCOc1cc(CNC2CCCC2)cc(Cl)c1OCc1cccc(F)c1 | 7.17 µM (inactive) |
| COc1ccc(-c2csc(-c3cccnc3)n2)cc1 | > 64 µM (inactive) |
| CCOc1cc(CNc2ccccc2)cc(Cl)c1OCc1ccc(F)cc1 | > 64 µM (inactive) |
| CCOc1cc(CNC2CCCC2)cc(Cl)c1OC | > 64 µM (inactive) |
| COc1cc(CNC2CCCC2)cc(Cl)c1OCc1ccc(F)cc1 | 0.826 µM |
| CCOc1cc(C(=O)NC2CCCC2)cc(Cl)c1OCc1ccc(F)cc1 | > 64 µM (inactive) |
| CCOc1cc(CNCc2ccccc2)cc(Cl)c1OCc1ccc(F)cc1 | 17.4 µM (inactive) |
| Fc1ccc(-c2csc(-c3cccnc3)n2)cc1 | 6.09 µM (inactive) |
| Fc1ccc(COc2ccc(CNC3CCCC3)cc2Cl)cc1 | 4.18 µM |
| Cc1ccc(-c2csc(-c3cccnc3)n2)cc1 | 30 µM (inactive) |
| CCOc1cc(CNC2CCCCC2)cc(Cl)c1OCc1ccc(F)cc1 | 9.66 µM (inactive) |
| c1ccc(-c2csc(-c3ccncc3)n2)cc1 | 2.58 µM |
| CCOc1cc(CNC2CCCC2)cc(Cl)c1OCc1ccccc1F | 0.767 µM |
| CCOc1cc(CNC2CCCC2)cc(Cl)c1OCc1ccccc1Cl | 12 µM (inactive) |
| CCOc1cc(CNC2CCC2)cc(Cl)c1OCc1ccc(F)cc1 | 8.68 µM (inactive) |
| Clc1ccc(-c2csc(-c3cccnc3)n2)cc1 | 1.51 µM |
| CCOc1cc(CNC2CCCC2)cc(Cl)c1OCc1ccc(OC)cc1 | > 64 µM (inactive) |
| CCOc1cc(CNC2CCCC2)cc(Cl)c1OCc1ccc(F)cc1 | 1.04 µM |
| Fc1ccc(-c2csc(-c3ccncc3)n2)cc1 | 2.03 µM |
| CCOc1cc(CNC2CCCC2)cc(Cl)c1OCc1ccc(C)cc1 | 25.8 µM (inactive) |
